{
  "source": "patent US9725675B2",
  "about": "“Lipid-soluble formulations containing mixtures of antioxidants” (KEMIN INDUSTRIES, INC., priority 2003, dated 2017)",
  "experiment": "Oil Stability Index (OSI) induction time, AOCS Official Method Cd 12b-92, at 98° C.",
  "details": "for OSI induction time (h) of formulations based on single antioxidants: 250 ppm of antioxidant formulation (20% active antioxidant in the carrier of Formulation 1), soybean oil, replicates 1-3; for OSI induction time of soybean oil stabilized with synthetic antioxidants: single antioxidants directly dissolved in soybean oil, 98° C., control 14.8 h",
  "note": "Values joined by “and” are separate entries in the source; they are usually repeats but may differ in a detail not shown here. Equal entries are not always repeated.",
  "data": [
    {"molecule": "COc1ccc(O)c(C(C)(C)C)c1", "note": "[BHA, butylated hydroxyanisole]", "values": [
      {"measurement": "OSI induction time (h) of formulations based on single antioxidants", "value": "14.0 h and 14.2 h and 14.5 h"},
      {"measurement": "OSI induction time of soybean oil stabilized with synthetic antioxidants", "setting": "250 ppm", "value": 14.0, "unit": "h"},
      {"measurement": "OSI induction time of soybean oil stabilized with synthetic antioxidants", "setting": "500 ppm", "value": 15.5, "unit": "h"},
      {"measurement": "OSI induction time of soybean oil stabilized with synthetic antioxidants", "setting": "1000 ppm", "value": 21.5, "unit": "h"}
    ]},
    {"molecule": "Cc1cc(C(C)(C)C)c(O)c(C(C)(C)C)c1", "note": "[BHT, butylated hydroxyltoluene]", "values": [
      {"measurement": "OSI induction time (h) of formulations based on single antioxidants", "value": "15.5 h and 15.4 h and 15.0 h"},
      {"measurement": "OSI induction time of soybean oil stabilized with synthetic antioxidants", "setting": "250 ppm", "value": 17.9, "unit": "h"},
      {"measurement": "OSI induction time of soybean oil stabilized with synthetic antioxidants", "setting": "500 ppm", "value": 20, "unit": "h"}
    ]},
    {"molecule": "O=C(O)c1cc(O)c(O)c(O)c1", "note": "[Gallic acid, gallic acid]", "values": [
      {"measurement": "OSI induction time (h) of formulations based on single antioxidants", "value": "21.6 h and 20.7 h and 22.0 h"},
      {"measurement": "OSI induction time of soybean oil stabilized with synthetic antioxidants", "setting": "250 ppm", "value": 30.6, "unit": "h"},
      {"measurement": "OSI induction time of soybean oil stabilized with synthetic antioxidants", "setting": "500 ppm", "value": 41.8, "unit": "h"},
      {"measurement": "OSI induction time of soybean oil stabilized with synthetic antioxidants", "setting": "1000 ppm", "value": 47.4, "unit": "h"}
    ]},
    {"molecule": "CCCCCCCCOC(=O)c1cc(O)c(O)c(O)c1", "note": "[Octyl gallate, octyl gallate]", "values": [
      {"measurement": "OSI induction time (h) of formulations based on single antioxidants", "value": "19.3 h (2×) and 19.5 h"},
      {"measurement": "OSI induction time of soybean oil stabilized with synthetic antioxidants", "setting": "250 ppm", "value": 29.6, "unit": "h"},
      {"measurement": "OSI induction time of soybean oil stabilized with synthetic antioxidants", "setting": "500 ppm", "value": 38.6, "unit": "h"},
      {"measurement": "OSI induction time of soybean oil stabilized with synthetic antioxidants", "setting": "1000 ppm", "value": 47.6, "unit": "h"}
    ]},
    {"molecule": "CCCOC(=O)c1cc(O)c(O)c(O)c1", "note": "[Propyl gallate, propyl gallate]", "values": [
      {"measurement": "OSI induction time (h) of formulations based on single antioxidants", "value": "19.5 h and 21.5 h and 20.1 h"},
      {"measurement": "OSI induction time of soybean oil stabilized with synthetic antioxidants", "setting": "250 ppm", "value": 35.8, "unit": "h"},
      {"measurement": "OSI induction time of soybean oil stabilized with synthetic antioxidants", "setting": "500 ppm", "value": 44.5, "unit": "h"},
      {"measurement": "OSI induction time of soybean oil stabilized with synthetic antioxidants", "setting": "1000 ppm", "value": 53.1, "unit": "h"}
    ]}
  ]
}
